From patent US20220107328A1, “METHODS OF TREATING LIVER DISEASES” (Camp4 Therapeutics Corporation, priority 2018, published 2022)

How the values were obtained:
[1] = system: PNPLA3 mRNA; assay: qRT-PCR of PNPLA3 mRNA in compound-treated mouse hepatocytes; format: cell-based; settings: for Relative PNPLA3 mRNA levels: mouse hepatocytes, 1 μM, normalized to ACTB
Method: Analysis of the fold changes in expression as measured by qRT-PCR were performed using the technique below. The control was DMSO, and the treatment was the selected compound (CPD). The internal control was GAPDH or B-Actin (or otherwise indicated), and the gene of interest is the target. First, the averages of the 4 conditions were calculated for normalization: DMSO:GAPDH, DMSO:Target, CPD: GAPDH, and CPD:Target. Next, the ΔCT of both control and treatment were calculated to normalize to internal control (GAPDH) using (DMSO:Target)−(DMSO:GAPDH)=ΔCT control and (CPD:Target)−(CPD: GAPDH)=ΔCT experimental. Then, the ΔΔCT was calculated by ΔCT experimental−ΔCT control. The Expression Fold Change (or Relative Quantification, abbreviated as RQ) was calculated by 2−(ΔΔCT) (2-fold expression change was shown by RNA-Seq results provided herein).
Compounds were tested at concentrations ranging from 0.01 μM to 50 μM. […] PNPLA3 levels were normalized to the level of a house keeping gene ACTB.

[2] = system: PNPLA3 mRNA; assay: qRT-PCR of PNPLA3 mRNA in human primary hepatic stellate cells; format: cell-based; settings: for mrna remaining at 1 µM / mrna remaining at 10 µM / PNPLA3 mRNA remaining after treatment compared to untreated cells: Human Stellate; for mrna remaining at 1 µM / mrna remaining at 10 µM: read-out: PNPLA3 mRNA remaining after treatment compared to untreated cells; for Primary Stellate cells PNPLA3 (fold change in mRNA expression): 3 μM, relative to GAPDH; for Relative PNPLA3 mRNA expression: stellate cells, Table 37
[3] = system: PNPLA3 mRNA; assay: qRT-PCR of PNPLA3 mRNA in compound-treated primary human hepatocytes; settings: for mrna remaining at 10 µM / mrna remaining at 1 µM: Homo sapiens, Hepatocyte; for Primary Hepatocytes 4178 PNPLA3 (fold change in mRNA expression): donor 4178, 3 μM; for Primary Hepatocytes 4178 PNPLA3 (fold change in mRNA expression) / Primary Hepatocytes 4282 PNPLA3 (fold change in mRNA expression): relative to GUSB; for Primary Hepatocytes 4282 PNPLA3 (fold change in mRNA expression): donor 4282, 3 μM; for Relative PNPLA3 mRNA expression: primary human hepatocytes, Table 35
[4] = system: COL1A1 mRNA; assay: qRT-PCR of COL1A1 mRNA in human primary hepatic stellate cells; format: cell-based; settings: 3 μM, relative to GAPDH
[5] = system: PCSK9 mRNA; assay: qRT-PCR of PCSK9 mRNA in primary hepatocytes; format: cell-based, human; settings: donor 4178, 3 μM, relative to GUSB
[6] = Hepatocyte, Mouse hepatocytes, 10 uM, read-out: PNPLA3 mRNA remaining after treatment compared to untreated cells
[7] = read-out: PNPLA3 mRNA remaining after treatment compared to untreated cells, H Hep Donor-3, 10 uM
[8] = read-out: PNPLA3 mRNA remaining after treatment compared to untreated cells, H Hep Donor-4, 1 uM
[9] = read-out: PNPLA3 mRNA remaining after treatment compared to untreated cells, H Hep Donor-4, 10 uM
[10] = read-out: PNPLA3 mRNA remaining after treatment compared to untreated cells, H Hep Donor-5, 1 uM
[11] = read-out: PNPLA3 mRNA remaining after treatment compared to untreated cells, H Hep Donor-5, 10 uM

## CO[C@H]1C[C@@H]2CC[C@@H](C)[C@@](O)(O2)C(=O)C(=O)N2CCCC[C@H]2C(=O)O[C@H]([C@H](C)C[C@@H]2CC[C@@H](OP(C)(C)=O)[C@H](OC)C2)CC(=O)[C@H](C)/C=C(\C)[C@@H](O)[C@@H](OC)C(=O)[C@H](C)C[C@H](C)/C=C/C=C/C=C/1C [Deforolimus]
[1]
  Relative PNPLA3 mRNA levels: 0.30 ± 0.10

## Cc1cccc(-c2nn3c(c2-c2ccnc4ccc(C(N)=O)cc24)CCC3)n1 [LY2157299 Galunisertib]
[1]; [6]
  mrna remaining at 10 µM: 102%
[2]; 1 uM
  mrna remaining at 1 µM: 65%
[2]; 10 uM
  mrna remaining at 10 µM: 100%
[3]; read-out: PNPLA3 mRNA remaining after treatment compared to untreated cells, H Hep Donor-1, 10 uM
  mrna remaining at 10 µM: 50%
[3]; read-out: PNPLA3 mRNA remaining after treatment compared to untreated cells, H Hep Donor-2, 10 uM
  mrna remaining at 10 µM: 70%
[3]; [7]
  mrna remaining at 10 µM: 80%
[3]; [8]
  mrna remaining at 1 µM: 75%
[3]; [9]
  mrna remaining at 10 µM: 50%
[3]; [10]
  mrna remaining at 1 µM: 55%
[3]; [11]
  mrna remaining at 10 µM: 50%

## FC(F)(F)c1ccc(/C=C/c2nc(COc3ccc(CCCCn4ccnn4)cc3)co2)cc1 [Mubritinib (TAK 165)]
[1]; Mouse hepatocytes, 1 uM
  PNPLA3 mRNA remaining after treatment compared to untreated cells: 1.12
[1]; Mouse hepatocytes, 10 uM
  PNPLA3 mRNA remaining after treatment compared to untreated cells: 0.09
[2]; 1 uM
  PNPLA3 mRNA remaining after treatment compared to untreated cells: 0.2
[2]; 10 uM
  PNPLA3 mRNA remaining after treatment compared to untreated cells: 0.78
[3]; H Hep Donor-2, 10 uM
  PNPLA3 mRNA remaining after treatment compared to untreated cells: 0.39
[3]; H Hep Donor-3, 10 uM
  PNPLA3 mRNA remaining after treatment compared to untreated cells: 0.2
[3]; H Hep Donor-4, 1 uM
  PNPLA3 mRNA remaining after treatment compared to untreated cells: 0.55
[3]; H Hep Donor-4, 10 uM
  PNPLA3 mRNA remaining after treatment compared to untreated cells: 0.4
[3]; H Hep Donor-5, 1 uM
  PNPLA3 mRNA remaining after treatment compared to untreated cells: 0.6
[3]; H Hep Donor-5, 10 uM
  PNPLA3 mRNA remaining after treatment compared to untreated cells: 0.25

## COc1cccc2cc(-c3nc([C@H]4CC[C@H](C(=O)O)CC4)n4ncnc(N)c34)[nH]c12 [OSI-027/ASP7486]
[1]; Mouse hepatocytes, 1 uM
  PNPLA3 mRNA remaining after treatment compared to untreated cells: 0.3
[1]; Mouse hepatocytes, 10 uM
  PNPLA3 mRNA remaining after treatment compared to untreated cells: 0.35
[2]; 1 uM
  PNPLA3 mRNA remaining after treatment compared to untreated cells: 0.2
[2]; 10 uM
  PNPLA3 mRNA remaining after treatment compared to untreated cells: 0.65
[3]; H Hep Donor-1, 1 uM (stated in cell)
  PNPLA3 mRNA remaining after treatment compared to untreated cells: 0.3 (1 uM)
[3]; H Hep Donor-2, 1 uM (stated in cell)
  PNPLA3 mRNA remaining after treatment compared to untreated cells: 0.4 (1 uM)
[3]; H Hep Donor-3, 10 uM
  PNPLA3 mRNA remaining after treatment compared to untreated cells: 0.55
[3]; H Hep Donor-4, 1 uM
  PNPLA3 mRNA remaining after treatment compared to untreated cells: 0.6
[3]; H Hep Donor-4, 10 uM
  PNPLA3 mRNA remaining after treatment compared to untreated cells: 0.38
[3]; H Hep Donor-5, 1 uM
  PNPLA3 mRNA remaining after treatment compared to untreated cells: 0.5
[3]; H Hep Donor-5, 10 uM
  PNPLA3 mRNA remaining after treatment compared to untreated cells: 0.2

## CN(c1ncccc1CNc1nc(Nc2ccc3c(c2)CC(=O)N3)ncc1C(F)(F)F)S(C)(=O)=O [PF-00562271]
[1]; Mouse hepatocytes, 10 uM
  PNPLA3 mRNA remaining after treatment compared to untreated cells: 0.27
[2]; 1 uM
  PNPLA3 mRNA remaining after treatment compared to untreated cells: 1
[2]; 10 uM
  PNPLA3 mRNA remaining after treatment compared to untreated cells: 0.18
[3]; H Hep Donor-2, 10 uM
  PNPLA3 mRNA remaining after treatment compared to untreated cells: 0.34
[3]; H Hep Donor-3, 10 uM
  PNPLA3 mRNA remaining after treatment compared to untreated cells: 0.2
[3]; H Hep Donor-4, 10 uM
  PNPLA3 mRNA remaining after treatment compared to untreated cells: 0.5
[3]; H Hep Donor-5, 1 uM
  PNPLA3 mRNA remaining after treatment compared to untreated cells: 1
[3]; H Hep Donor-5, 10 uM
  PNPLA3 mRNA remaining after treatment compared to untreated cells: 0.25

## O=c1c(O)c(-c2ccc(O)c(O)c2)oc2cc(O)cc(O)c12 [Quercetin]
[2]
  Primary Stellate cells PNPLA3 (fold change in mRNA expression): 1.11
[4]
  Primary Stellate cells COL1A1 (fold change in mRNA expression): 0.94
[5]
  Primary Hepatocytes 4178 PCSK9 (fold change in mRNA expression): 0.95
[3]
  Primary Hepatocytes 4178 PNPLA3 (fold change in mRNA expression): 1.16
  Primary Hepatocytes 4282 PNPLA3 (fold change in mRNA expression): 0.93

## CCOC(=O)C1=C(N)Oc2ccc(Cl)cc2C1C(C#N)C(=O)OCC (stereo not shown) [SC79]
[2]
  Primary Stellate cells PNPLA3 (fold change in mRNA expression): 0.85
[4]
  Primary Stellate cells COL1A1 (fold change in mRNA expression): 0.98
[5]
  Primary Hepatocytes 4178 PCSK9 (fold change in mRNA expression): 1.11
[3]
  Primary Hepatocytes 4178 PNPLA3 (fold change in mRNA expression): 1.10
  Primary Hepatocytes 4282 PNPLA3 (fold change in mRNA expression): 0.94

## COc1cc2c(cc1OC)CN(C(=O)/C=C/c1c(-c3ccccc3)n(C)c3ncccc13)CC2 [SIS3]
[1]; Mouse hepatocytes, 10 uM
  PNPLA3 mRNA remaining after treatment compared to untreated cells: 0.50
[2]; 0.01 uM
  Relative PNPLA3 mRNA expression: 1.49 ± 0.09
[2]; 0.1 uM
  Relative PNPLA3 mRNA expression: 1.38 ± 0.19
[2]; 1 uM
  Relative PNPLA3 mRNA expression: 0.77 ± 0.03
[2]; 10 uM
  Relative PNPLA3 mRNA expression: 7.95 ± 2.29
[3]; H Hep Donor-1, 10 uM
  PNPLA3 mRNA remaining after treatment compared to untreated cells: 0.2
[3]; H Hep Donor-2, 10 uM
  PNPLA3 mRNA remaining after treatment compared to untreated cells: 0.55
[3]; 3.3 uM
  Relative PNPLA3 mRNA expression: 1.358 ± 0.3303
[3]; 10 uM
  Relative PNPLA3 mRNA expression: 1.011 ± 0.2574

## Cn1cc(-c2nc(N[C@@H]3CCCC[C@@H]3N)c(F)c3c2C(=O)NC3)cn1 [TAK-659]
[1]
  Relative PNPLA3 mRNA levels: 0.31 ± 0.12
[3]; Syk pathway inhibitors, 10 μM, human hepatocytes, normalized to B2M, mean of three replicates ± standard deviation
  Relative PNPLA3 mRNA levels: 0.44 ± 0.11

## Cc1nc(-c2cn3c(n2)-c2ccc(-c4cnn(C(C)(C)C(N)=O)c4)cc2OCC3)n(C(C)C)n1 [Taselisib (GDC 0032)]
[2]
  Primary Stellate cells PNPLA3 (fold change in mRNA expression): 0.77
[4]
  Primary Stellate cells COL1A1 (fold change in mRNA expression): 1.32
[5]
  Primary Hepatocytes 4178 PCSK9 (fold change in mRNA expression): 0.67
[3]
  Primary Hepatocytes 4178 PNPLA3 (fold change in mRNA expression): 0.72
  Primary Hepatocytes 4282 PNPLA3 (fold change in mRNA expression): 0.62

## CCn1c(=O)c(-c2cc[nH]n2)cc2c(C)nc(N)nc21 [Voxtalisib]
[1]
  Relative PNPLA3 mRNA levels: 0.31 ± 0.08

## c1cncc(CN2CCC(n3ncc4c(N5CCOCC5)nc(-c5ccc6[nH]ccc6c5)nc43)CC2)c1 [WAY600]
[1]
  Relative PNPLA3 mRNA levels: 0.67 ± 0.21

## CC(C)c1cc(CNc2nc(Nc3cc(C4CC4)[nH]n3)cc(N3CCN(C)CC3)n2)on1 [XL228]
[1]; Hepatocyte, Mouse hepatocytes, 1 uM, read-out: PNPLA3 mRNA remaining after treatment compared to untreated cells
  mrna remaining at 1 µM: 40%
[1]; [6]
  mrna remaining at 10 µM: 12%
[2]; 1 uM
  mrna remaining at 1 µM: 80%
[2]; 10 uM
  mrna remaining at 10 µM: 70%
[3]; read-out: PNPLA3 mRNA remaining after treatment compared to untreated cells, H Hep Donor-1, 1 uM (stated in cell)
  mrna remaining at 1 µM: 40%
[3]; [7]
  mrna remaining at 10 µM: 30%
[3]; [8]
  mrna remaining at 1 µM: 55%
[3]; [9]
  mrna remaining at 10 µM: 55%
[3]; [10]
  mrna remaining at 1 µM: 55%
[3]; [11]
  mrna remaining at 10 µM: 25%

## FC(F)c1nc2ccccc2n1-c1nc(N2CCOCC2)nc(N2CCOCC2)n1 [ZSTK474]
[2]
  Primary Stellate cells PNPLA3 (fold change in mRNA expression): 0.68
[4]
  Primary Stellate cells COL1A1 (fold change in mRNA expression): 0.71
[5]
  Primary Hepatocytes 4178 PCSK9 (fold change in mRNA expression): 0.66
[3]
  Primary Hepatocytes 4178 PNPLA3 (fold change in mRNA expression): 0.60
  Primary Hepatocytes 4282 PNPLA3 (fold change in mRNA expression): 0.80

## CC(C)Oc1ccc(-c2nn([C@@H](C)c3oc4ccc(F)cc4c(=O)c3-c3cccc(F)c3)c3ncnc(N)c23)cc1F [umbralisib (TGR-1202)]
[2]
  Primary Stellate cells PNPLA3 (fold change in mRNA expression): 1.10
[4]
  Primary Stellate cells COL1A1 (fold change in mRNA expression): 1.15
[5]
  Primary Hepatocytes 4178 PCSK9 (fold change in mRNA expression): 0.80
[3]
  Primary Hepatocytes 4178 PNPLA3 (fold change in mRNA expression): 0.90
  Primary Hepatocytes 4282 PNPLA3 (fold change in mRNA expression): 0.80
